Laboratory results reported in patent publication US7341730B1, “Inhibitors of angiogenesis and tumor growth” (University of Southern California, priority 1998, dated 2008).
No end group written: not given here.

Columns and labels:
Format in all cases: cell-based
[1] = test system: KS Y-1 cells; test: KS Y-1 cell proliferation assay (MTT); conditions: concentration not given
Description: (§1) To determine if Saposin B polypeptides had anti-angiogenic activity, a series of overlapping polypeptides were synthesized and tested in the KS Y-1 cell proliferation assay. The overlapping polypeptides are SEQ ID NOs:13 though 43. Cell Proliferation assays in either KS cells or fibroblast. Cells were plated in 48 well plates at equal numbers in appropriate culture medium. Cells were treated with the test compounds at various concentrations on day one, and on day 3. MTT was done on day 5. KS cells were used to represent the activated endothelial cells, while fibroblast cells represent the control cells. The results are remarkable for the lack of toxicity to the fibroblast relative to the activated endothelial cells/KS cells.

[2] = test system: fibroblast cells (T1); test: Fibroblast proliferation assay (MTT), control cells; conditions: for Cell Proliferation Activity (% of control), T1: concentration not printed
Description: as §1

[3] = test system: endothelial cells (HUVEC); test: Growth inhibition of endothelial cells
Description: (§2) Typically, in an anti-proliferation assay, the suppression of growth in the presence of the compound to be tested is measured. For example, the above cells are incubated with the polypeptides of this invention for a suitable time and the decrease in the growth rate relative to a negative control, i.e., cells of the same cell line which have been incubated in media alone, is measured. Growth of the cell culture can be measured by any method acceptable to one of skill, including but not limited to, 3H-thymidine uptake, cell counting and tetrazolium dye uptake.
(§3) By SDS-PAGE, the bacterial product was smaller than the eukaryotic protein. Because prokaryotically expressed proteins are not glycosylated, the difference in molecular weights probably represents the presence of carbohydrate in the eukaryotic protein. Recombinant proteins were then tested in KS, endothelial and control cell lines. Activity was found only in KS cell lines and endothelial cells.

[4] = test system: KS cell lines; test: KS cell migration in transwell plates; conditions: KS cell lines
Description: The assays were done in double chamber wells separated by fibrinogen-coated membrane. Chemotaxis was induced by bFGF (25 ng/mL) in the lower chamber. Endothelial cells or KS cells (5×10^4/mL) were placed in the upper chamber in the presence and absence of test polypeptides. Taxol at 10 ng/mL was used as a known inhibitor of migration. Cell migration across the membrane was quantitated after an overnight incubation.
Angiogenesis is mediated by complex biochemical processes including degradation of the basement membrane under existing blood vessel endothelial cells, followed by proliferation and migration of endothelial cells, followed by formation of capillary loops, and recruitment of vascular smooth muscle cells to encase the newly formed vessels and provide stability. KS and endothelial cell migration in the presence of Saposin B was studied in transwell culture plates with 8 μm pore membranes (Costar, Cambridge, Mass.).
Briefly, wells were coated with fibronectin (25 μg/mL) overnight, and endothelial cells or KS cells were plated in the upper chamber with 100 μL of DMEM/0.4% FCS. 500 μL of DMEM/0.4% FCS was added to the lower chamber and incubated at 37° C. for one hour. The test polypeptides, at various concentrations, were added to the upper chamber, and chemotactic agents (VEGF or bFGF at 20 ng/mL) were added to the lower cell-culture chambers. The plates were incubated for 5 hr at 37° C. and the cells crossing the fibronectin-coated membrane were counted after wiping the cells off the membrane in the upper chamber with a cotton swab.
The cells that traversed the membrane were fixed with Diff-Quik stain according to the manufacturer's instruction (Dade Diagnostics Inc., Aguada, PR). The cells were counted under a microscope at 320× in four randomly selected fields. The experiments were done in duplicate and repeated at least three times.

[5] = test system: KS cell lines; test: Growth inhibition of KS cell lines by recombinant proteins; conditions: for growth inhibition / activity against KS cell lines: recombinant or naturally occurring protein
Description: as §2, §3

[6] = up to the highest concentration tested (50 μg/mL)

Molecule | Cell Proliferation Activity (% of control), KS Y-1 ([1]; KS Y-1, first value column) | Cell Proliferation Activity (% of control), KS Y-1 ([1]; KS Y-1) | Cell Proliferation Activity (% of control), T1 ([2]; T1, first value column) | Cell Proliferation Activity (% of control), T1 ([2]; T1, second value column) | other results
DVCQDCIQM [SEQ ID NO:24] | 68 % of control | 46 % of control | 96 % of control | 84 % of control | –
DVCQDC [SEQ ID NO:27] | 60 % of control | 22 % of control | 88 % of control | 75 % of control | –
VCQDCIQMV [SEQ ID NO:29] | 65 % of control | 33 % of control | 95 % of control | 86 % of control | –
GDVSQDSIQMV [SEQ ID NO:20] | 93 % of control | 84 % of control | – | – | Fibroblast Proliferation, % of Control ([2]; 10 μg/mL): 95.7 % of Control; Fibroblast Proliferation, % of Control ([2]; 50 μg/mL): 95.7 % of Control
DVCQDCIQ [SEQ ID NO:25] | 72 % of control | 39 % of control | 98 % of control | 89 % of control | –
DVCQDCIQMV [SEQ ID NO:21] | 29 % of control | – | – | – | Fibroblast Proliferation, % of Control ([2]; 1 μg/mL): 100.0 % of Control; Fibroblast Proliferation, % of Control ([2]; 50 μg/mL): 87.0 % of Control; growth inhibition / activity against endothelial cells [3]: Only endothelial cells show dose dependent growth inhibition
CQDCIQMV [SEQ ID NO:30] | 77 % of control | 35 % of control | 92 % of control | 84 % of control | –
DVCQDCI [SEQ ID NO:26] | 72 % of control | 40 % of control | 96 % of control | 81 % of control | –
QDCIQMV [SEQ ID NO:31, QDCIQMV] | 74 % of control | – | 87 % of control | 80 % of control | –
GDVCQ [SEQ ID NO:22] | 59 % of control | 28 % of control | – | – | Fibroblast Proliferation, % of Control ([2]; 1 μg/mL): 95.7 % of Control; Fibroblast Proliferation, % of Control ([2]; 10 μg/mL): 95.7 % of Control; Fibroblast Proliferation, % of Control ([2]; 50 μg/mL): 87.0 % of Control
GDVCQDCIQMV [SEQ ID NO:19] | 28 % of control | 8 % of control | – | – | Fibroblast Proliferation, % of Control ([2]; 1 μg/mL): 91.3 % of Control; Fibroblast Proliferation, % of Control ([2]; 10 μg/mL): 91.3 % of Control; % Cells Migrating Through Membrane (of Control) ([4]; 1 μg/mL): 78.23%; % Cells Migrating Through Membrane (of Control) ([4]; 10 μg/mL): 40.32%; % Cells Migrating Through Membrane (of Control) ([4]; 50 μg/mL): 20.98%
DCIQMV [SEQ ID NO:23] | 68 % of control | 51 % of control | – | – | –
Prosaposin: 70 kD glycoprotein, precursor of Saposin A, B, C and D; naturally occurring full-length (protein, listed as Homo sapiens, prosaposin, 70 kD glycoprotein, precursor of Saposin A, B, C and D; naturally occurring full-length) MYALFLLASLLGAALAGPVLGLKECTRGSAVWCQNVKTASDCGAVKHCLQTVWNKPTVKSLPCDICKDVVTAAGDMLKDNATEEEILVYLEKTCDWLPKPNMSASCKEIVDSYLPVILDIIKGEMSRPGEVCSALNLCESLQKHLAELNHQKQLESNKIPELDMTEVVAPFMANIPLLLYPQDGPRSKPQPKDNGDVCQDCIQMVTDIQTAVRTNSTFVQALVEHVKEECDRLGPGMADICKNYISQYSEIAIQMMMHMQPKEICALVGFCDEVKEMPMQTLVPAKVASKNVIPALELVEPIKKHEVPAKSDVYCEVCEFLVKEVTKLIDNNKTEKEILDAFDKMCSKLPKSLSEECQEVVDTYGSSILSILLEEVSPELVCSMLHLCSGTRLPALTVHVTQPKDGGFCEVCKKLVGYLDRNLEKNSTKQEILAALEKGCSFLPDPYQKQCDQFVAEYEPVLIEILVEVMDPSFVCLKIGACPSAHKPLLGTEKCIWGPSYWCQNTETAAQCNAVEHCKRHVWN | – | – | – | – | growth inhibition / activity against KS cell lines [5]: no activity; growth inhibition / activity against endothelial cells [3]: no activity
Saposin A: sphingolipid-binding glycoprotein derived from Prosaposin, recombinant (protein, UniProt P07602 60-142, looked up, Saposin-A) Saposin-A: SLPCDICKDVVTAAGDMLKDNATEEEILVYLEKTCDWLPKPNMSASCKEIVDSYLPVILDIIKGEMSRPGEVCSALNLCESLQ | – | – | – | – | growth inhibition / activity against KS cell lines [5]: no activity; growth inhibition / activity against endothelial cells [3]: no activity
Saposin C: sphingolipid-binding glycoprotein derived from Prosaposin, recombinant (protein, UniProt P07602 311-390, looked up, Saposin-C) Saposin-C: SDVYCEVCEFLVKEVTKLIDNNKTEKEILDAFDKMCSKLPKSLSEECQEVVDTYGSSILSILLEEVSPELVCSMLHLCSG | – | – | – | – | activity against KS cell lines [5, 6]: no activity; activity against endothelial cells [3, 6]: no activity
Saposin D: sphingolipid-binding glycoprotein derived from Prosaposin, recombinant (protein, UniProt P07602 405-486, looked up, Saposin-D) Saposin-D: DGGFCEVCKKLVGYLDRNLEKNSTKQEILAALEKGCSFLPDPYQKQCDQFVAEYEPVLIEILVEVMDPSFVCLKIGACPSAH | – | – | – | – | growth inhibition / activity against KS cell lines [5]: no activity; growth inhibition / activity against endothelial cells [3]: no activity
